Structures can show the parent of a compound that is named as a salt.
Experiments:
CB1 receptor [1] = molecular target: T1, CB1 receptor; assay: In-vitro determination of affinity to CB1/CB2-receptors (radioligand [3H]-CP55940 binding); conditions: binding data per pharmacological methods part I, table does not say whether human transfected receptor or rat cerebellum
T1 construct: IC50 [nM]; radioligand [3H]-CP55940
Experimental: (§1) The in-vitro determination of the affinity of the inventive substituted pyrazoline compounds to CB1/CB2-Rezeptors is carried out as described in the publication of Ruth A. Ross, Heather C. Brockie et al., “Agonist-inverse agonist characterization at CB1 and CB2 cannabinoid receptors of L-759633, L759656 and AM630”, British Journal of Pharmacology, 126, 665-672, (1999), whereby the transfected human CB1 and CB2 receptors of Receptor Biology, Inc. are used. The radioligand used for both receptors is [^3H]-CP55940. The respective parts of the description is hereby incorporated by reference and forms part of the present disclosure.
(§2) Binding affinity to CB1 receptor was evaluated according to a modification of the method described by Govaerts et al., Eur J Pharmac Sci 23, 233-243 (2004). The respective parts of the description is hereby incorporated by reference and forms part of the present disclosure.
(§3) Briefly, cerebellum from male wistar rats (250-300 g) were carefully dissected on ice and homogenates were prepared with Potter-Helveheim in a cold 50 mM Tris-HCl solution containing 5 mM MgCl2, 1 mM EDTA and 0.25 M sucrose, pH 7.4. The suspension was centrifuged at 1,000×g for 5 minutes. The supernatants were collected and centrifuged 50,000×g for 15 minutes. The resulting pellets were then resuspended in Tris-HCl buffer without sucrose, homogenized and incubated for 15 min at 37° C. in an orbital shaker bath and centrifuged again at 50,000×g for 15 min. Pellets were weighted, resuspended in Tris-HCl buffer without sucrose, homogenized with Ultraturrax at 13,500 rpm for 3×5 seconds and alicuoted in 0.9 ml volumes in Eppendorf tubes. Alicuotes were centrifuged at 20,800×g for 5 minutes, supernatants discarded and pellets were frozen at −80° C. until use. Total protein concentration was determined using the Bio-Rad Lowry method based kit. Competitive binding experiments were performed in presence of 1 nM [^3H]-CP 55,940 in siliconized glass tubes containing 100 μg protein/tube resuspended in 1 ml final volume of 50 mM Tris-HCl, 5 mM MgCl2, 1 mM EDTA, 0.5% (w/v) bovine serum albumin, pH 7.4. Compounds were present at various concentrations and the non specific binding was determined in the presence of 10 μM HU-210. After 1 hour incubation at 30° C., the suspension was rapidly filtered through 0.5% PEI pre-treated GF/B fiber filters on a 96-well harvester and washed 3 times with 3 ml ice-cold binding buffer without bovine serum albumin. Radioactivity on filters was measured with Wallac Winspectral 1414 counter by liquid scintillation in 6 ml Ecoscint H (National Diagnostics, U.K.). Assays were made in triplicates.
(§4) Binding data were analyzed by non-linear regression with the software GraphPad Prism Version 3.03.

CB1 receptor [2] = molecular target: T2, CB1 receptor (UniProt P20272); assay: as above; conditions: for Inhibition [%], 10^−7 M: compound at 10^−7 M; for Inhibition [%], 10^−8 M: compound at 10^−8 M
T2 construct: other: compound at 10^−7 M; radioligand [3H]-CP55940; other: compound at 10^−8 M
Experimental: as §1, §2, §3, §4

Compound | IC50 (CB1 receptor [1]) [nM] | Inhibition [%], 10^−7 M (CB1 receptor [2]) [%] | Inhibition [%], 10^−8 M (CB1 receptor [2]) [%] | IC50 (CB1 receptor [1]; hydrochloride) [nM] | Inhibition [%], 10^−7 M (CB1 receptor [2]; hydrochloride) [%] | Inhibition [%], 10^−8 M (CB1 receptor [2]; hydrochloride) [%]
O=C(N[N+]1([O-])CCCCC1)C1=NN(c2ccc(Cl)cc2Cl)C(c2ccc(Cl)cc2)C1 (stereo not drawn) [Example 7, N-oxide of 5-(4-Chloro-phenyl)-1-(2,4-dichloro-phenyl)-4,5-dihydro-1H-pyrazole-3-carboxylic acid piperidin-1-ylamide] | 146 | 71.2 | −12.8 |  |  | 
O=C(NCC1CCCCC1)C1=NN(c2ccc(Cl)cc2Cl)C(c2ccc(Cl)cc2)C1 (stereo not drawn) [Example 32, 5-(4-Chloro-phenyl)-1-(2,4-dichloro-phenyl)-4,5-dihydro-1H-pyrazole-3-carboxylic acid cyclohexylmethyl-amide] | 84 | 52.7 | 12 |  |  | 
O=C(C1=NN(c2ccc(Cl)cc2Cl)C(c2ccc(Cl)cc2)C1)N1CCN(Cc2ccccc2)CC1 (stereo not drawn) [Example 52, (4-Benzyl-piperazin-1-yl)-[5-(4-chloro-phenyl)-1-(2,4-dichloro-phenyl)-4,5-dihydro-1H-pyrazol-3-yl]-methanone] | 251 |  |  |  |  | 
O=C(NN1CCCCC1)C1=NN(c2ccc(Cl)cc2Cl)C(c2ccc(Br)cc2)C1 (stereo not drawn) [Example 60, 5-(4-Bromo-phenyl)-1-(2,4-dichloro-phenyl)-4,5-dihydro-1H-pyrazole-3-carboxylic acid piperidin-1-ylamide hydrochloride] |  |  |  | 27 |  | 
O=C(NN1CCCCC1)C1=NN(c2ccc(Cl)cc2Cl)C(c2ccc(Br)cc2)C1 (stereo not drawn) [Example 60A, 5-(4-Bromo-phenyl)-1-(2,4-dichloro-phenyl)-4,5-dihydro-1H-pyrazole-3-carboxylic acid piperidin-1-ylamide] | 44 | 65.8 | 33.3 |  |  | 
CCCNC(=O)C1=NN(c2ccc(Cl)cc2Cl)C(c2ccc(Cl)cc2)C1 (stereo not drawn) [Example 69, 5-(4-Chloro-phenyl)-1-(2,4-dichloro-phenyl)-4,5-dihydro-1H-pyrazole-3-carboxylic acid propylamide] | 355 |  |  |  |  | 
Cl.O=C(NN1CC2CCCC2C1)C1=NN(c2ccc(Cl)cc2Cl)C(c2ccc(F)cc2)C1 (stereo not drawn) [Example 91, 1-(2,4-Dichloro-phenyl)-5-(4-fluoro-phenyl)-4,5-dihydro-1H-pyrazole-3-carboxylic acid (hexahydro-cyclopenta[c]pyrrol-2-yl)-amide hydrochloride] |  |  |  | 47 | 79.1 | 43
Cl.O=C(NN1CC2CCCC2C1)C1=NN(c2ccc(Cl)cc2Cl)C(c2ccc(F)cc2)C1 (stereo not drawn) [Example 91A, 1-(2,4-Dichloro-phenyl)-5-(4-fluoro-phenyl)-4,5-dihydro-1H-pyrazole-3-carboxylic acid (hexahydro-cyclopenta[c]pyrrol-2-yl)-amide] | 84 | 75.3 | 34.9 |  |  | 
O=C(NN1CCCCCC1)C1=NN(c2ccc(Cl)cc2Cl)C(c2ccc(F)cc2)C1 (stereo not drawn) [Example 96, 1-(2,4-Dichloro-phenyl)-5-(4-fluoro-phenyl)-4,5-dihydro-1H-pyrazole-3-carboxylic acid azepan-1-ylamide] | 56 | 74.8 | 43.3 |  |  | 
COc1ccc(C2CC(C(=O)NN3CCCCC3)=NN2c2ccc(Cl)cc2Cl)cc1.Cl (stereo not drawn) [Example 106, 1-(2,4-Dichloro-phenyl)-5-(4-methoxy-phenyl)-4,5-dihydro-1H-pyrazole-3-carboxylic acid piperidin-1-ylamide hydrochloride] |  | 76.1 | 23.4 | 32 |  | 
COc1ccc(C2CC(C(=O)NN3CC4CCCC4C3)=NN2c2ccc(Cl)cc2Cl)cc1.Cl (stereo not drawn) [Example 109, 1-(2,4-Dichloro-phenyl)-5-(4-methoxy-phenyl)-4,5-dihydro-1H-pyrazole-3-carboxylic acid (hexahydro-cyclopenta[c]pyrrol-2-yl)-amide hydrochloride] |  |  |  | 16 | 80.6 | 44

From US8207156B2, “Substituted pyrazoline compounds, their preparation and use as medicaments” (Laboratorios Del Dr. Esteve, S.A., priority 2005, dated 2012)
